System: HPRT1
Test: Pooled positive selection hgRNA screen for resistance to 6-thioguanine
Format: cell-based, human
Details: 6-TG treated cells
Description: Lentiviral-based positive selection pooled hgRNA screens were performed, and the human HPRT1 and TK1 genes were targeted using guide pairs that either target within exonic regions, which are expected to result in gene knockout, or intronic loci flanking constitutive exons in these genes, which are expected to result in exon deletion (FIG. 1D). All of the exon-flanking hgRNAs in the library were designed to introduce double-strand DNA breaks at intronic sites that are at least 100 bps distal from splice sites flanking the target exons.
At T18 15 million cells were collected for genomic DNA extraction, and hgRNA expression cassettes were amplified and subjected to high-throughput sequencing as described below.

Nc1nc2nc[nH]c2c(=S)[nH]1 [6-TG, 6-thioguanine]
library constructs undetectable when cells were treated with 6-TG: 95.8%
